From PubChem BioAssay AID489032 (Sanford-Burnham Center for Chemical Genomics, 2010)
Active and inactive are the calls of the source. How the calls were made is not given here.

System: UPR adaptive arm reporter cells, luciferase luminescence
Assay: activators of adaptive UPR signalling, dose response, cell-based, luciferase luminescence (AID 489032)

SMILES	EC50
COC(=O)c1cc([N+](=O)[O-])c(-n2ccnc2)c([N+](=O)[O-])c1	> 80 µM (inactive)
Cc1ccc(Nc2nc(NCc3ccco3)c3ccccc3n2)cc1	17.8 µM
CCOC(=O)C1=C(C)N=C2c3ccccc3C(=O)C2C1c1ccc(C)cc1 (stereo not drawn)	> 80 µM (inactive)
CCc1nc(C)cn1S(=O)(=O)c1cc([N+](=O)[O-])ccc1Cl	> 80 µM (inactive)
Cc1ccc2nc(Nc3nc(C)cc(-c4ccccc4)n3)[nH]c(=O)c2c1	> 80 µM (inactive)
Nc1nc(Nc2ccccc2)nc(NC2CCCCC2)c1[N+](=O)[O-]	29.2 µM (inactive)
O=C(Cn1c2ccccc2c(=O)c2cc([N+](=O)[O-])ccc21)Nc1ccccc1Cl	> 80 µM (inactive)
CCOC(=O)c1c(-c2ccc(C)o2)csc1NC(=O)COC(=O)c1ccc(NC(N)=O)cc1	> 80 µM (inactive)
Cc1c(Cl)cccc1Nc1nc(NCCO)c2ccccc2n1	26.6 µM (inactive)
O=C(NCC1CC1)c1cccc2c1C(=O)c1ccc(-c3ccc(OC(F)(F)F)cc3)cc1S2(=O)=O	> 80 µM (inactive)
Cc1ccc(Cn2c(SCC(=O)Nc3cc(C)on3)nc3ccccc3c2=O)cc1	> 80 µM (inactive)
O=C(N/N=C/c1ccc(O)c(O)c1)c1ccc(CSc2cccc3cccnc23)cc1	> 80 µM (inactive)
O=C1NC(=O)N(Cc2ccccc2Cl)C(=O)/C1=C/c1cccs1	> 80 µM (inactive)
COc1ccc(OC)c(NC(=O)c2oc3ccccc3c2NC(=O)C2CC2)c1	> 80 µM (inactive)
O=[N+]([O-])c1cc(-c2ccc(/C=N/c3nc4ccccn4c3-c3ccco3)o2)ccc1Cl	> 80 µM (inactive)
CC1=Nc2ccccc2/C1=C\c1sc(Nc2ccc(C)cc2)nc1O	> 80 µM (inactive)
COc1ccc2c(c1)[nH]c1c(=O)n(/N=C/C3C(C)C=C(C)CC3C)c(=O)[nH]c12 (stereo not drawn)	65.8 µM (inactive)
Cc1ccc2c(c1)C(c1ccc([N+](=O)[O-])cc1)=NNC(c1ccc(Br)cc1)=N2	> 80 µM (inactive)
COc1ccc2cc3c(N)nn(C(=O)C4CCC(C(C)(C)C)CC4)c3nc2c1 (stereo not drawn)	> 80 µM (inactive)
O=C(NCc1ccccc1Cl)c1cccc2c1C(=O)c1ccc(-c3ccc(OC(F)(F)F)cc3)cc1S2(=O)=O	> 80 µM (inactive)
N/C(=N\c1nc(CSc2ccccn2)cc(=O)[nH]1)Nc1ccc(Cl)cc1Cl	> 80 µM (inactive)
CCOc1ccc(-c2nnc(SCC(=O)Nc3ccc4c(c3)c3ccccc3n4CC)n2N)cc1	> 80 µM (inactive)

SMILES	EC50
Cc1cccc2cc(C(c3nnnn3Cc3ccccc3)N3CCCc4ccccc43)c(=O)[nH]c12 (stereo not drawn)	32.5 µM (inactive)
COc1cc([C@H]2c3[nH]c4ccccc4c3C[C@H]3C(=O)N4[C@@H](c5cc(OC)c(OC)c(OC)c5)c5[nH]c6ccccc6c5C[C@H]4C(=O)N23)cc(OC)c1OC	12.1 µM
COc1ccc(Cc2nnc(N/N=C/c3ccc(N(C)C)cc3)[nH]c2=O)cc1OC	25.5 µM (inactive)
Cc1ccc(C(=O)Nc2cc(S(=O)(=O)N3CCOCC3)ccc2N2CCCC2)cc1	63.2 µM (inactive)
Cc1cc(N2CCN(c3nc(-c4ccc([N+](=O)[O-])cc4)cs3)CC2)c2ccccc2n1	> 80 µM (inactive)
O=C(C[C@H]1C/C=C\C[C@@H](NC(=O)OCC2c3ccccc3-c3ccccc32)C(=O)O[C@@H](c2ccccc2)CNC1=O)N[C@H](CO)Cc1ccccc1	20 µM
CC(C)C(=O)N(c1cc2sc(=O)oc2c2ccccc12)S(=O)(=O)c1cccs1	> 80 µM (inactive)
COc1cc(-c2noc(C)c2/C=C/c2ccc(OC(C)=O)cc2)cc(OC)c1OC	> 80 µM (inactive)
CCCCCn1c(N)c(-c2nc3ccccc3o2)c2c([N+](=O)[O-])nn(CC)c(=O)c21	> 80 µM (inactive)
O=C(CC1C[C@H](C(=O)N2CCCCC2)[C@@]2(CCc3ccccc3)c3[nH]c4ccccc4c3CCN2C1=O)NCCC1=CCCCC1 (stereo partly drawn)	43 µM (inactive)
COC(=O)c1c(C)oc2ccc(N(C(=O)Oc3ccccc3)S(=O)(=O)c3ccc(Cl)c([N+](=O)[O-])c3)cc12	20.1 µM (inactive)
CN(C)CCCNC(=O)c1ccc(-c2nc(-c3ccc(Cl)cc3)cs2)cc1	> 80 µM (inactive)
CN(C)c1ccc(/C=C/[N+](=O)[O-])cc1	> 80 µM (inactive)
C[C@H]1[C@H](C)CC[C@]2(C(=O)O)CC[C@]3(C)C(=CC[C@@H]4[C@@]5(C)C[C@@H](O)[C@H](O)C(C)(C)[C@@H]5CC[C@]43C)[C@H]12	> 80 µM (inactive)
C/C(Cl)=C\Cn1c(O)c(N=NC(N)=S)c2cc(Br)ccc21	4.06 µM
Cc1ccc(-c2ccnc(-c3ccc(O)cc3)n2)cc1	63.8 µM (inactive)
FC(F)(F)c1nc2ccccc2n2c(-c3ccc(Cl)cc3)nnc12	> 80 µM (inactive)
CC1CCN(Cc2c(C(=O)N/N=C/c3ccc(C(C)C)cc3)nnn2-c2nonc2N)CC1	> 80 µM (inactive)
COc1ccc(/C=N/NC(=O)c2cccc([N+](=O)[O-])c2)c2ccccc12	> 80 µM (inactive)
Cc1ccc(Cn2c(C(C)Nc3nc(-c4ccc(F)cc4)cs3)nc3cc(Cl)c(Cl)cc32)cc1 (stereo not drawn)	> 80 µM (inactive)
COc1ccc(N2CCN(Cc3nc(N)nc(Nc4ccc(C)c(Cl)c4)n3)CC2)cc1	18.4 µM
Cn1c(Cl)cnc1C1CC(=O)c2cc(Cl)ccc2O1 (stereo not drawn)	18.9 µM

SMILES	EC50
O=C(Nc1ccc(SC(F)F)cc1)c1cc(-c2ccncc2)nc2ccccc12	34.7 µM (inactive)
CCc1cc2c(C)ccc(C)c2nc1SCC(=O)Nc1c[nH]c(=O)[nH]c1=O	> 80 µM (inactive)
Cc1ccc(-c2nnn(CC(=O)N(Cc3cccs3)C(C(=O)NC3CCCCC3)c3ccco3)n2)o1 (stereo not drawn)	> 80 µM (inactive)
Cc1ccc(C2=Nc3ccc(Br)cc3C(c3ccncc3)=NN2)cc1	24 µM (inactive)
CC(=O)Oc1ccc(-c2ccc(C(=O)OCC(=O)N(C)CC(=O)Nc3ccccc3Cl)cc2)cc1	2.46 µM
CCC[C@@H](CN[C@@H](CNC)[C@H](C)CC)NCC1CCC(C(C)(C)C)CC1 (stereo partly drawn)	> 80 µM (inactive)
CC1(C)CC(=O)C(C=Nc2ccc(C(=O)c3ccccc3)cc2N=CC2=C(O)CC(C)(C)CC2=O)=C(O)C1	> 80 µM (inactive)
O=C1NC(=O)N(Cc2ccccc2)C(=O)/C1=C\c1ccco1	> 80 µM (inactive)
CN1Cc2c(N3CCOCC3)nc3sc(C(=O)c4ccc(Br)cc4)c(N)c3c2CC1(C)C	> 80 µM (inactive)
Cc1ccc(C(C(=O)NCc2ccco2)N(C(=O)CNC(=O)c2cccs2)c2c(C)cc(C)cc2C)cc1 (stereo not drawn)	> 80 µM (inactive)
C/C(CC(C)(C)C1CCCCC1)=N\NC(N)=S	> 80 µM (inactive)
CN(C)CCOc1ccc(-c2c(-c3ccccc3)sc3ccccc23)cc1	> 80 µM (inactive)
Cc1ccc(C(C)C)c(OCc2ccc(C(=O)N/N=C/c3ccc(O)c(O)c3)cc2)c1	8.24 µM
CN(/N=C\c1ccc(O)c(O)c1)c1nc(-c2ccccc2)cc(-c2ccccc2)n1	8.69 µM
N#Cc1cc2c(nc1SCC(=O)Nc1sc3c(c1C#N)CCC3)CCCC2	> 80 µM (inactive)
COc1cc(/C=C2\CC(C(C)(C)C)C/C(=C\c3cc(OC)c(OC)c(OC)c3)C2=O)cc(OC)c1OC (stereo not drawn)	39.3 µM (inactive)
Cn1ncc(N=Cc2c(O)ccc3ccccc23)c1C(=O)Nc1cccc(Cl)c1	> 80 µM (inactive)
C=CCOc1ccc2cccc(/C=N/NC(=O)c3cc4cc([N+](=O)[O-])ccc4s3)c2c1	43.5 µM (inactive)
CCOC(=O)c1c(NC(=O)c2cc(C)on2)c2cc([N+](=O)[O-])ccc2n1C	> 80 µM (inactive)
O=C(C[n+]1ccc(-c2cc(C(=O)Nc3cccc(C(F)(F)F)c3)c3ccccc3n2)cc1)c1cccc([N+](=O)[O-])c1	> 80 µM (inactive)
O=C(CSc1nc2ccc(Nc3nc(N4CCOCC4)nc(N4CCOCC4)n3)cc2s1)Nc1ccccc1F	11.7 µM
Cc1nn(-c2ccccc2)c(C)c1/C=N/NC(=O)CSc1nc2ccccc2c(=O)n1-c1ccc(Br)cc1	35.7 µM (inactive)

SMILES	EC50
O=C(N/N=C/c1ccc(Cl)cc1)c1sccc1OCc1ccc(F)cc1	49.3 µM (inactive)
C/C(=N/NC(=O)c1ccc(C)s1)c1cccc(NC(=O)COc2ccc(Cl)cc2C)c1	72.4 µM (inactive)
O=C(Nc1ccc(Br)cc1)c1cc(-c2ccncc2)nc2ccccc12	11.1 µM
Cc1cccc(NC(=O)/C(C#N)=C/c2cn(CC(=O)NCc3ccco3)c3ccccc23)c1C	> 80 µM (inactive)
CCN(CC)c1ccc(C(=O)OCC(=O)Nc2cc3oc4ccccc4c3cc2OC)cc1	25.8 µM (inactive)
CN(C)CC/C=C1\c2ccc(F)cc2Sc2cc(F)c(Cl)cc21	15.8 µM
COc1cccc(/C=N/Nc2ccc([N+](=O)[O-])cn2)c1O	> 80 µM (inactive)
N#Cc1ccc(N/N=C/c2cn(-c3ccccc3)nc2-c2ccccc2)c([N+](=O)[O-])c1	> 80 µM (inactive)
CCCn1c(Nc2nc3ccccc3n2C)nc2ccccc21	> 80 µM (inactive)
CC(C)=CCCC1(C)C=Cc2c(ccc3c2[nH]c2cc(O)c(C)cc23)O1 (stereo not drawn)	> 80 µM (inactive)
O=C(Nc1nc(-c2ccc(F)c(F)c2)cs1)Nc1ccc(F)cc1F	37.2 µM (inactive)
CC1(C)CC[C@@]23CC[C@]4(C)[C@@](OC2=O)(C3C1)[C@H]1O[C@H]1C1[C@@]2(C)CC[C@H](O)C(C)(C)C2CC[C@]14C (stereo partly drawn)	> 80 µM (inactive)
COc1ccc(/C=N/Nc2cc(C)nc3ccc(Br)cc23)cc1	> 80 µM (inactive)
CCOC(=O)c1nnn2c1nc(Nc1cccc(C(F)(F)F)c1)c1ccccc12	17.2 µM
CN(C)c1ccc(/C=N/NC(=O)c2ccc(NC(=O)c3ccccc3)cc2)cc1	> 80 µM (inactive)
CC(C)CN=C(NS(=O)(=O)c1ccccc1)C(Cl)(Cl)Cl	> 80 µM (inactive)
CCOC(=O)c1nnc(-c2ccccc2)nc1Oc1ccc(Cl)cc1	> 80 µM (inactive)
O=C(/C=C/c1ccco1)NC(=S)Nc1ccc(O)c(-c2nc3ccccc3s2)c1	10.4 µM
C=CCN1C(=O)/C(=C2/Sc3ccc(OC)cc3N2C)SC1=Nc1cccc(O)c1	> 80 µM (inactive)
C/C(CCC12CC3CC(CC(C3)C1)C2)=N\NC(N)=S	27.3 µM (inactive)
COc1ccc(N2CCN(Cc3cc(=O)oc4cc(-c5ccccc5)c(O)cc34)CC2)cc1	> 80 µM (inactive)
COc1cc2[nH]c3c(N4CCN(c5ccc(Cl)cc5)CC4)ncnc3c2cc1OC	> 80 µM (inactive)
